Assay results taken from patent US20150017636A1, “Detection and Monitoring of Macrocyclic Lactone Resistance in Nematodes” (priority 2013, published 2015).
Like-named read-outs stand apart in the source and are kept apart here.

Columns and labels:
Haemonchus contortus = details: cited from earlier work
C. elegans IVR10 strain = assay: Rescue of Dyf7 gene in IVR10: ivermectin sensitivity of transgenic worms on NGM plates; type: in vivo, Caenorhabditis elegans; details: Dyf7 ttx 1 and Dyf7 ttx 2 strains (IVR10 with wildtype Dyf7 transgene), 6 ng/mL ivermectin, plated as eggs, scored at two days
Experimental: FIG. 2 illustrates the rescue of Dyf7 gene in C. elegans IVR10 strain. Effect of Dyf7 rescued (strains Dyf7 ttx 1 and Dyf7 ttx 2) on ivermectin sensitivity. Strains “ttx ctrl 1” and “ttx ctrl 2” contain only the ttx-3:GFP transgenic marker. Results are shown as the percentage of growth of transgenic nematodes (as measured by GFP expression) in function of the type of transgenic nematode and treatment.
The wild-type Bristol N2 C. elegans strain was cultured in nematode growth medium (NGM) with OP50 Escherichia coli under standard conditions (Brenner, 1974). The IVR6 and IVR10 resistant strains to ivermectin were derived from Bristol N2, by successive increasing concentrations of ivermectin (James and Davey, 2009). […]
Genomic DNA extracted from C. elegans C43C3 cosmid (provided by the Sanger Institute, UK) was used to amplify the Dyf7 gene using the primers Dyf7-CeB-sense-5′-[…]-3′ (SEQ ID NO: 3) and Dyf7-CeB-antisense-5′-CTCATTTCTGGTCAAACG-3′ (SEQ ID NO: 4). […] The worms were separated into transgenic and non-transgenic based on GFP expression (green channel) and then each population scored for resistance phenotype.
To determine if the Dyf7 rescuing fragment rescues the ivermectin-sensitivity phenotype of IVR10, each strain was plated, as eggs, onto NGM plates containing 6 ng/mL ivermectin and DMSO control plates. At two days, the L4 and adult worms were scored for presence of the transgene. […]

ivermectin
IVM Drug Phenotype (Haemonchus contortus; isolate 1202, Brazil): Resistant | IVM Drug Phenotype (Haemonchus contortus; isolate CRA, RSA): Susceptible | IVM Drug Phenotype (Haemonchus contortus; isolate Cedara, RSA): Resistant | IVM Drug Phenotype (Haemonchus contortus; isolate Coruzu, Argentina): Resistant | IVM Drug Phenotype (Haemonchus contortus; isolate F15, Brazil): Resistant | IVM Drug Phenotype (Haemonchus contortus; isolate Haecon, Australia): Resistant | IVM Drug Phenotype (Haemonchus contortus; isolate Howick, RSA): Resistant | IVM Drug Phenotype (Haemonchus contortus; isolate ISE, UK): Susceptible | IVM Drug Phenotype (Haemonchus contortus; isolate Kokstad, RSA): Resistant | IVM Drug Phenotype (Haemonchus contortus; isolate MOF23, USA): Moderate Resistant | IVM Drug Phenotype (Haemonchus contortus; isolate MOF23-9*, USA, 23 generations of moxidectin selection): Resistant | IVM Drug Phenotype (Haemonchus contortus; isolate PF23, USA): Susceptible | IVM Drug Phenotype (Haemonchus contortus; isolate PF23-24, USA): Susceptible | IVM Drug Phenotype (Haemonchus contortus; isolate Rog-gliswil, Switzerland): Resistant | IVM Drug Phenotype (Haemonchus contortus; isolate SUL, Uruguay): Resistant | IVM Drug Phenotype (Haemonchus contortus; isolate Sorin, France): Susceptible | IVM Drug Phenotype (Haemonchus contortus; isolate Wallangra 85, Australia): Susceptible | IVM Drug Phenotype (Haemonchus contortus; isolate Yallanbee, Australia): Susceptible | IVM phenotype of the strain (Haemonchus contortus; strain IVF23, ivermectin selected from the PF strain): resistant | growth of transgenic worms (escape from L1 arrest, L4 and adult worms scored for the transgene) (C. elegans IVR10 strain): no transgenic worms that escaped L1 arrest
